Assay results taken from ChEMBL document CHEMBL1909046, “DrugMatrix in vitro pharmacology data”.

Molecular target: T1, Caspase-1 (Homo sapiens, UniProt P29466);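 further: Caspase-1 enzyme inhibition assay with a peptide substrate; in other assays of this panel Not Active means under 50% inhibition at 10 µM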
T1 sequence (P29466 whole entry): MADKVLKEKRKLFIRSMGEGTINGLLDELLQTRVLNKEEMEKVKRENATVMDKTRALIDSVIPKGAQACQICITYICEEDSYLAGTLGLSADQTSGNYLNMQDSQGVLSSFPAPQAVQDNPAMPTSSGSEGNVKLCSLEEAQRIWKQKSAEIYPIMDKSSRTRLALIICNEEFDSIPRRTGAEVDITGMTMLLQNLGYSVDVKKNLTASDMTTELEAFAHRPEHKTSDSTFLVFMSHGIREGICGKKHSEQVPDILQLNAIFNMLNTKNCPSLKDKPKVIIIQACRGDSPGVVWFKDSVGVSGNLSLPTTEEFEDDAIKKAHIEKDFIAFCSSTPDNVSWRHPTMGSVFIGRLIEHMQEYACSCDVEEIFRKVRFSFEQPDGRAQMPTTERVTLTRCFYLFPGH
Set-up: species or system Escherichia coli
Details: not given

SMILES	IC50
O=C(O)P(=O)(O)O [FOSCARNET]	Not Active
Cc1ccc(C)c(OCCCC(C)(C)C(=O)O)c1 [GEMFIBROZIL]	Not Active
O=c1c(-c2ccc(O)cc2)coc2cc(O)cc(O)c12 [GENISTEIN]	Not Active
CCC1=C(C)CN(C(=O)NCCc2ccc(S(=O)(=O)NC(=O)N[C@H]3CC[C@H](C)CC3)cc2)C1=O [GLIMEPIRIDE]	Not Active
Nc1cc(-c2ccncc2)c[nH]c1=O [INAMRINONE]	Not Active
CCCCC1=NC2(CCCC2)C(=O)N1Cc1ccc(-c2ccccc2-c2nnn[nH]2)cc1 [IRBESARTAN]	Not Active
CN1CCC(=C2c3ccccc3CC(=O)c3sccc32)CC1 [KETOTIFEN]	Not Active
N[C@@H](Cn1ccc(=O)c(O)c1)C(=O)O [L-MIMOSINE]	Not Active
C[N+](C)(C)C[C@H](O)CC(=O)[O-] [LEVOCARNITINE]	Not Active

Tested on: not listed separately
Assay: DRUGMATRIX: Tumor Necrosis Factor (TNF), Non-Selective radioligand binding (ligand: [125I] TNF-alpha)
Format: cell membranes, Membrane
Details: u-937; Not Active = under 50% inhibition at 10 µM

SMILES	IC50	Ki
O=C(O)P(=O)(O)O [FOSCARNET]	Not Active	Not Active
Cc1ccc(C)c(OCCCC(C)(C)C(=O)O)c1 [GEMFIBROZIL]	Not Active	Not Active
O=c1c(-c2ccc(O)cc2)coc2cc(O)cc(O)c12 [GENISTEIN]	Not Active	Not Active
CCC1=C(C)CN(C(=O)NCCc2ccc(S(=O)(=O)NC(=O)N[C@H]3CC[C@H](C)CC3)cc2)C1=O [GLIMEPIRIDE]	Not Active	Not Active
Nc1cc(-c2ccncc2)c[nH]c1=O [INAMRINONE]	Not Active	Not Active
CCCCC1=NC2(CCCC2)C(=O)N1Cc1ccc(-c2ccccc2-c2nnn[nH]2)cc1 [IRBESARTAN]	Not Active	Not Active
CN1CCC(=C2c3ccccc3CC(=O)c3sccc32)CC1 [KETOTIFEN]	Not Active	Not Active
N[C@@H](Cn1ccc(=O)c(O)c1)C(=O)O [L-MIMOSINE]	Not Active	Not Active
C[N+](C)(C)C[C@H](O)CC(=O)[O-] [LEVOCARNITINE]	Not Active	Not Active

Molecular target: Matrix metalloproteinase-9 (Homo sapiens, UniProt P14780);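 further: inhibition of isolated MMP-9 enzyme activity toward a synthetic peptide substrate, from the DrugMatrix protease screening panel; in other assays of this panel Not Active means under 50% inhibition at 10 µM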
Sequence (P14780 whole entry): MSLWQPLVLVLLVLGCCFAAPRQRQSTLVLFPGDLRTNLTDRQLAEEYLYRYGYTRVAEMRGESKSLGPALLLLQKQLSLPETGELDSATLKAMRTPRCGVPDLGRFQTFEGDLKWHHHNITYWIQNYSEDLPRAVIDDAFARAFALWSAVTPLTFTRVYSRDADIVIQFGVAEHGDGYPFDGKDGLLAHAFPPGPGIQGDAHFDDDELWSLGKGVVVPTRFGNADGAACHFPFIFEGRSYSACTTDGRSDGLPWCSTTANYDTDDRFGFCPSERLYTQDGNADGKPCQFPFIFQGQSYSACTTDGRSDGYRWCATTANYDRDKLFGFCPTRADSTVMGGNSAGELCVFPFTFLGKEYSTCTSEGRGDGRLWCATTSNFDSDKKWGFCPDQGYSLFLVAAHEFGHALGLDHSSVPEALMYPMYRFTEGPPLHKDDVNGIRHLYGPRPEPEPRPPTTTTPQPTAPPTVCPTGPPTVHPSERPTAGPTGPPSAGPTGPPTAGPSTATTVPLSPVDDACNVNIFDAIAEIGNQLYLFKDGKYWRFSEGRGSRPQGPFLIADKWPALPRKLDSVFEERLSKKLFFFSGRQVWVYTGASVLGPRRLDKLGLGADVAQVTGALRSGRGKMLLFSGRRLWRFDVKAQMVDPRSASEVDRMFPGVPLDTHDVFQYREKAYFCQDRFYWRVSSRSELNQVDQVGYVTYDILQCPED
Format: cell-based
Details: not given

SMILES	IC50
O=C(O)P(=O)(O)O [FOSCARNET]	Not Active
Cc1ccc(C)c(OCCCC(C)(C)C(=O)O)c1 [GEMFIBROZIL]	Not Active
O=c1c(-c2ccc(O)cc2)coc2cc(O)cc(O)c12 [GENISTEIN]	Not Active
CCC1=C(C)CN(C(=O)NCCc2ccc(S(=O)(=O)NC(=O)N[C@H]3CC[C@H](C)CC3)cc2)C1=O [GLIMEPIRIDE]	Not Active
Nc1cc(-c2ccncc2)c[nH]c1=O [INAMRINONE]	Not Active
CCCCC1=NC2(CCCC2)C(=O)N1Cc1ccc(-c2ccccc2-c2nnn[nH]2)cc1 [IRBESARTAN]	Not Active
CN1CCC(=C2c3ccccc3CC(=O)c3sccc32)CC1 [KETOTIFEN]	Not Active
N[C@@H](Cn1ccc(=O)c(O)c1)C(=O)O [L-MIMOSINE]	Not Active
C[N+](C)(C)C[C@H](O)CC(=O)[O-] [LEVOCARNITINE]	Not Active

Tested on: not listed separately
Assay: DRUGMATRIX: Glutamate, Kainate radioligand binding (ligand: [3H] Kainic acid)
Format: cell membranes, Rattus norvegicus, Wistar, Brain, Membrane
Details: Not Active = under 50% inhibition at 10 µM

SMILES	IC50	Ki
O=C(O)P(=O)(O)O [FOSCARNET]	Not Active	Not Active
Cc1ccc(C)c(OCCCC(C)(C)C(=O)O)c1 [GEMFIBROZIL]	Not Active	Not Active
O=c1c(-c2ccc(O)cc2)coc2cc(O)cc(O)c12 [GENISTEIN]	Not Active	Not Active
CCC1=C(C)CN(C(=O)NCCc2ccc(S(=O)(=O)NC(=O)N[C@H]3CC[C@H](C)CC3)cc2)C1=O [GLIMEPIRIDE]	Not Active	Not Active
Nc1cc(-c2ccncc2)c[nH]c1=O [INAMRINONE]	Not Active	Not Active
CCCCC1=NC2(CCCC2)C(=O)N1Cc1ccc(-c2ccccc2-c2nnn[nH]2)cc1 [IRBESARTAN]	Not Active	Not Active
CN1CCC(=C2c3ccccc3CC(=O)c3sccc32)CC1 [KETOTIFEN]	Not Active	Not Active
N[C@@H](Cn1ccc(=O)c(O)c1)C(=O)O [L-MIMOSINE]	Not Active	Not Active
C[N+](C)(C)C[C@H](O)CC(=O)[O-] [LEVOCARNITINE]	Not Active	Not Active

Molecular target: Protein kinase C alpha type (Homo sapiens, UniProt P17252);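 further: inhibition of PKCalpha kinase activity measured in an enzyme assay with histone as the phosphorylation substrate; in other assays of this panel Not Active means under 50% inhibition at 10 µM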
Format: cell-based
Details: sf9

SMILES	IC50
O=C(O)P(=O)(O)O [FOSCARNET]	Not Active
Cc1ccc(C)c(OCCCC(C)(C)C(=O)O)c1 [GEMFIBROZIL]	Not Active
O=c1c(-c2ccc(O)cc2)coc2cc(O)cc(O)c12 [GENISTEIN]	Not Active
CCC1=C(C)CN(C(=O)NCCc2ccc(S(=O)(=O)NC(=O)N[C@H]3CC[C@H](C)CC3)cc2)C1=O [GLIMEPIRIDE]	Not Active
Nc1cc(-c2ccncc2)c[nH]c1=O [INAMRINONE]	Not Active
CCCCC1=NC2(CCCC2)C(=O)N1Cc1ccc(-c2ccccc2-c2nnn[nH]2)cc1 [IRBESARTAN]	Not Active
CN1CCC(=C2c3ccccc3CC(=O)c3sccc32)CC1 [KETOTIFEN]	Not Active
N[C@@H](Cn1ccc(=O)c(O)c1)C(=O)O [L-MIMOSINE]	Not Active
C[N+](C)(C)C[C@H](O)CC(=O)[O-] [LEVOCARNITINE]	Not Active

Molecular target: Substance-P receptor (Homo sapiens, UniProt P25103); further: in other assays of this panel Not Active means under 50% inhibition at 10 µM
Sequence (P25103 whole entry): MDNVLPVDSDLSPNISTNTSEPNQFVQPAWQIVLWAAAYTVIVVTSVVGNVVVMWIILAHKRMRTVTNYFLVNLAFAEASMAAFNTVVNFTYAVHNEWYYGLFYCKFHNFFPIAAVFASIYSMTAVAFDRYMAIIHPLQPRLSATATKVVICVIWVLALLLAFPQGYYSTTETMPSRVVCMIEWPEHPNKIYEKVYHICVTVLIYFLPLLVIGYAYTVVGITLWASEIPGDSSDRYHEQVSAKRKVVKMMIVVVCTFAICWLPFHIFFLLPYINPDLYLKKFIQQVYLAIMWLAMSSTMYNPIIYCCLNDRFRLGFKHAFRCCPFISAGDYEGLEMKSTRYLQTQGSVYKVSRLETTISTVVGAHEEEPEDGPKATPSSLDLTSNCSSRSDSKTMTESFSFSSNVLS
Format: cell membranes, CHO, Membrane
Details: cho

SMILES	IC50
O=C(O)P(=O)(O)O [FOSCARNET]	Not Active
Cc1ccc(C)c(OCCCC(C)(C)C(=O)O)c1 [GEMFIBROZIL]	Not Active
O=c1c(-c2ccc(O)cc2)coc2cc(O)cc(O)c12 [GENISTEIN]	Not Active
CCC1=C(C)CN(C(=O)NCCc2ccc(S(=O)(=O)NC(=O)N[C@H]3CC[C@H](C)CC3)cc2)C1=O [GLIMEPIRIDE]	Not Active
Nc1cc(-c2ccncc2)c[nH]c1=O [INAMRINONE]	Not Active
CCCCC1=NC2(CCCC2)C(=O)N1Cc1ccc(-c2ccccc2-c2nnn[nH]2)cc1 [IRBESARTAN]	Not Active
CN1CCC(=C2c3ccccc3CC(=O)c3sccc32)CC1 [KETOTIFEN]	Not Active
N[C@@H](Cn1ccc(=O)c(O)c1)C(=O)O [L-MIMOSINE]	Not Active
C[N+](C)(C)C[C@H](O)CC(=O)[O-] [LEVOCARNITINE]	Not Active

Molecular target: T2, Muscarinic acetylcholine receptor M2 (Homo sapiens, UniProt P08172); further: in other assays of this panel Not Active means under 50% inhibition at 10 µM
T2 sequence (P08172 whole entry): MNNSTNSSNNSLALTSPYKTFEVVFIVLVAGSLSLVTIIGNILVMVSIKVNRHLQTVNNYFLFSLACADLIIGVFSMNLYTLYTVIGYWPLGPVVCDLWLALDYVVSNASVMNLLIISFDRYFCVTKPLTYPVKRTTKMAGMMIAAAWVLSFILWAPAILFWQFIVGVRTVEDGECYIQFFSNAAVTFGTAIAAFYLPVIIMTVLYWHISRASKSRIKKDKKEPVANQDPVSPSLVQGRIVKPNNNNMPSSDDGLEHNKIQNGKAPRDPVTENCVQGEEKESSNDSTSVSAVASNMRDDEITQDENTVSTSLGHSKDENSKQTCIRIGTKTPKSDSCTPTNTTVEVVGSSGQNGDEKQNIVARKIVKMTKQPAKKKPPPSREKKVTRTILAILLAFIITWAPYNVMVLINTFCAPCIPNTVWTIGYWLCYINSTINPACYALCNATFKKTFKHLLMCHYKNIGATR
Format: cell membranes, CHO-K1, Membrane
Details: cho-k1

SMILES	IC50
O=C(O)P(=O)(O)O [FOSCARNET]	Not Active
Cc1ccc(C)c(OCCCC(C)(C)C(=O)O)c1 [GEMFIBROZIL]	Not Active
O=c1c(-c2ccc(O)cc2)coc2cc(O)cc(O)c12 [GENISTEIN]	Not Active
CCC1=C(C)CN(C(=O)NCCc2ccc(S(=O)(=O)NC(=O)N[C@H]3CC[C@H](C)CC3)cc2)C1=O [GLIMEPIRIDE]	Not Active
Nc1cc(-c2ccncc2)c[nH]c1=O [INAMRINONE]	Not Active
CCCCC1=NC2(CCCC2)C(=O)N1Cc1ccc(-c2ccccc2-c2nnn[nH]2)cc1 [IRBESARTAN]	Not Active
N[C@@H](Cn1ccc(=O)c(O)c1)C(=O)O [L-MIMOSINE]	Not Active
C[N+](C)(C)C[C@H](O)CC(=O)[O-] [LEVOCARNITINE]	Not Active

Same assay, conditions: read-out: IC50

SMILES	IC50
CN1CCC(=C2c3ccccc3CC(=O)c3sccc32)CC1 [KETOTIFEN]	838 nM

Same assay, conditions: read-out: Ki

SMILES	Ki
CN1CCC(=C2c3ccccc3CC(=O)c3sccc32)CC1 [KETOTIFEN]	298 nM

Molecular target: T3, 3-hydroxy-3-methylglutaryl-coenzyme A reductase (Homo sapiens, UniProt P04035)
T3 sequence (P04035 whole entry): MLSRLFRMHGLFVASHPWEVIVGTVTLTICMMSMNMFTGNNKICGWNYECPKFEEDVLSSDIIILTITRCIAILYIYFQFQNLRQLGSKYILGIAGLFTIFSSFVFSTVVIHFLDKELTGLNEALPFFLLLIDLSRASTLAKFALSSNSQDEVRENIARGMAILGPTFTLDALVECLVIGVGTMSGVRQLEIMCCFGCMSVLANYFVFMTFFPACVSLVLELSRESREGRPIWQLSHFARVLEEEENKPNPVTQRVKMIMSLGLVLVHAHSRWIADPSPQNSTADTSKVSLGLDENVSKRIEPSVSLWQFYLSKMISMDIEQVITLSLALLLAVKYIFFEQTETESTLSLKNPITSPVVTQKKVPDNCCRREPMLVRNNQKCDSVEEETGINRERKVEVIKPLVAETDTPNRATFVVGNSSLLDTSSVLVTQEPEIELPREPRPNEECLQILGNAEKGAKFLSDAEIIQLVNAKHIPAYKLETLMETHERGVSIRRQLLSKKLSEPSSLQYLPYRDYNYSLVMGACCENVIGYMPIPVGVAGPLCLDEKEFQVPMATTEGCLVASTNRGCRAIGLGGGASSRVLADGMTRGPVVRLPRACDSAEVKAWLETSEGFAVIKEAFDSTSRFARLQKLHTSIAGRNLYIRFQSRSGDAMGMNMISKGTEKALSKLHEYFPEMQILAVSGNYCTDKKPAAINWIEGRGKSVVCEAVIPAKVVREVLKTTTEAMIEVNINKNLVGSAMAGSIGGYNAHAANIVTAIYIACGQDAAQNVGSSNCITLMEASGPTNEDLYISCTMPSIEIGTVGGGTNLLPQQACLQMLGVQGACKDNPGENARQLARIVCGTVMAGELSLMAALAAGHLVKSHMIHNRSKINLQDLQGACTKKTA
Set-up: species or system Escherichia coli
Details: not given

SMILES	IC50
O=C(O)P(=O)(O)O [FOSCARNET]	Not Active
Cc1ccc(C)c(OCCCC(C)(C)C(=O)O)c1 [GEMFIBROZIL]	Not Active
O=c1c(-c2ccc(O)cc2)coc2cc(O)cc(O)c12 [GENISTEIN]	Not Active
CCC1=C(C)CN(C(=O)NCCc2ccc(S(=O)(=O)NC(=O)N[C@H]3CC[C@H](C)CC3)cc2)C1=O [GLIMEPIRIDE]	Not Active
Nc1cc(-c2ccncc2)c[nH]c1=O [INAMRINONE]	Not Active
CCCCC1=NC2(CCCC2)C(=O)N1Cc1ccc(-c2ccccc2-c2nnn[nH]2)cc1 [IRBESARTAN]	Not Active
CN1CCC(=C2c3ccccc3CC(=O)c3sccc32)CC1 [KETOTIFEN]	Not Active
N[C@@H](Cn1ccc(=O)c(O)c1)C(=O)O [L-MIMOSINE]	Not Active
C[N+](C)(C)C[C@H](O)CC(=O)[O-] [LEVOCARNITINE]	Not Active

Molecular target: Insulin receptor (Rattus norvegicus, UniProt P15127); further: in other assays of this panel Not Active means under 50% inhibition at 10 µM
Sequence (P15127 27-759 limits assumed): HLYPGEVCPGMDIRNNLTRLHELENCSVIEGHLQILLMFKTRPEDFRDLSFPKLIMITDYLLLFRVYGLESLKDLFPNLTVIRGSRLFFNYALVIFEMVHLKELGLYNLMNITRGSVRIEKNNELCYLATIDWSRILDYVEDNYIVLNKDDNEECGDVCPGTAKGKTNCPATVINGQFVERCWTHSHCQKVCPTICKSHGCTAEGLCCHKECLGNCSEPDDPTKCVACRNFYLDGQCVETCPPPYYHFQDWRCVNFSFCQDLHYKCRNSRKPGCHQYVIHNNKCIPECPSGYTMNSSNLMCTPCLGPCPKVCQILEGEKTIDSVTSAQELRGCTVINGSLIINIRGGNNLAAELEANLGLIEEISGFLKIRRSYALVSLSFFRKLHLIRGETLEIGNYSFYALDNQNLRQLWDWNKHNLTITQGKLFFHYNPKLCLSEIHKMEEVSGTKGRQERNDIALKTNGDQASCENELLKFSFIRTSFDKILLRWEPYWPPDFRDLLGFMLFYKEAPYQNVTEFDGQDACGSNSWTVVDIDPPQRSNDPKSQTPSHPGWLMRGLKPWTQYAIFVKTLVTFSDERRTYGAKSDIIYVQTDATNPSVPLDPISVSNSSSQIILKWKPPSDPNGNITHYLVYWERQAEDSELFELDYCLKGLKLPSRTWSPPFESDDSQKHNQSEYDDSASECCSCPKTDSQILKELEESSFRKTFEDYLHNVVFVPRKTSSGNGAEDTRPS
Sequence (P15127 764-1383 limits assumed): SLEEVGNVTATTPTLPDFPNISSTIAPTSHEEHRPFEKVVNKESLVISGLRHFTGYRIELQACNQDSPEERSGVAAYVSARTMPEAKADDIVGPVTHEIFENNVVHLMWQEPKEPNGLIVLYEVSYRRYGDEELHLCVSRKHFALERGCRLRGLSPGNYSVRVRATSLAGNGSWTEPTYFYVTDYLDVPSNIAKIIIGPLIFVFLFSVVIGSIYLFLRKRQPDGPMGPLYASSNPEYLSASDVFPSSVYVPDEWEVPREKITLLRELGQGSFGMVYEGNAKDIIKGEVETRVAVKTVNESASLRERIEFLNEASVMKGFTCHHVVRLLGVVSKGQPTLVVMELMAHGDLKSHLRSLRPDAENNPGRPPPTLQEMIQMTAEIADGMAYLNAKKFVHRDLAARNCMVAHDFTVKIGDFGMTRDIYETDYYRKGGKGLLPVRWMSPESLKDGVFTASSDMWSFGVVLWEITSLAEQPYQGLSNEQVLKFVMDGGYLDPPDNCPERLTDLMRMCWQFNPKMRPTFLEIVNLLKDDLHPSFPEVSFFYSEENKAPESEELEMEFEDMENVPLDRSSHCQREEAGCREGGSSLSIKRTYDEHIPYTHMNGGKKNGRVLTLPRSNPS
Format: cell membranes, Wistar, Liver, Membrane
Details: not given

SMILES	IC50
O=C(O)P(=O)(O)O [FOSCARNET]	Not Active
Cc1ccc(C)c(OCCCC(C)(C)C(=O)O)c1 [GEMFIBROZIL]	Not Active
O=c1c(-c2ccc(O)cc2)coc2cc(O)cc(O)c12 [GENISTEIN]	Not Active
CCC1=C(C)CN(C(=O)NCCc2ccc(S(=O)(=O)NC(=O)N[C@H]3CC[C@H](C)CC3)cc2)C1=O [GLIMEPIRIDE]	Not Active
Nc1cc(-c2ccncc2)c[nH]c1=O [INAMRINONE]	Not Active
CCCCC1=NC2(CCCC2)C(=O)N1Cc1ccc(-c2ccccc2-c2nnn[nH]2)cc1 [IRBESARTAN]	Not Active
CN1CCC(=C2c3ccccc3CC(=O)c3sccc32)CC1 [KETOTIFEN]	Not Active
N[C@@H](Cn1ccc(=O)c(O)c1)C(=O)O [L-MIMOSINE]	Not Active
C[N+](C)(C)C[C@H](O)CC(=O)[O-] [LEVOCARNITINE]	Not Active
